Patent publication US20060257875A1, “Affinity screening using "one-bead-one-compound" libraries” (Carlsberg A/S, priority 2003, published 2006)
Values joined by “and” are separate entries in the source; they are usually repeats but may differ in a detail not shown here. Equal values may be shown once. “Also recorded” adds a separate entry of the source. Read-outs that look alike come from different tables or passages of the source. Starred links: 1 amine or outer side, 2 acyl side, 3 side chain; linkers in the order of their positions; H or OH if unused. Non-standard residues stand in square brackets, D forms with d. Primed or numbered codes have the meaning given here. No end group written: not given here. Gua = 4-S-(Di-Boc-guanidino)-L-proline, CC(C)(C)OC(=O)N=C(NC(=O)OC(C)(C)C)N[C@H]1C[C@@H](C(=O)[*:2])N([*:1])C1; Pip′ = 4-phenyl-piperidine-4-carboxylic acid, O=C(C1(c2ccccc2)CCN([*:1])CC1)[*:2]; Abi = 3-amino-3-(biphenyl)-propanoic acid; Hyp = O=C(O)[C@@H]1C[C@@H](O)CN1; 3Pal = N[C@@H](Cc1cccnc1)C(=O)O; GlcNN = not defined here; Acm′ = not defined here; ManN = not defined here; ManS = not defined here

Tests used:
[1] = test system: phenylephrine (PE)-treated myocyte proteins; assay: Solid phase screening of Library 1 with labeled myocyte proteins; bound proteins identified by on-bead digest and peptide mass fingerprinting; type: binding, neonatal Wistar rats; details: Library 1 ligand on PEGA4000 bead; Phenylephrine Treated (Hyperthrophic) Myocytes
Experimental: (§1) Myocytes were prepared from 1 to 5 day old neonatal Wistar rats (University of Copenhagen) according to literature procedure described in Busk et al., 2002, Cardiovasc. Res., 56: 64-75 and plated into eight P10 culture plates at 6 million cells/plate.
(§2) Protein was extracted from myocytes prepared as described above for Example 9, using a new procedure modified from existing protocols, primarily: Arrott, et al., 1998, Anal Biochem. 258: 1-18. The media was removed from plates and adhered cells were treated for 10 minutes with ice cold phosphate buffer (0.25 mL, 10 mM, pH 7.5, augmented with 0.15 M NaCl 60 mM Benzamidine HCl, 5 mM EDTA, 10 μg/n E-64, 10 μg/mL Leu-peptin, 10 μg/mL Pepstatin A, and 1 mM PMSF). The cells were scraped off the plates and then lysed (on ice) in a sonicator (2×) using 10 seconds off/10 seconds on cycles.
(§3) The resulting suspension was augmented with CHAPS, DTT, and urea to a final concentration of CHAPS (1% w/v), DTT (5 mM), and urea (8 M). After 10-15 minutes on ice, the solution was centrifuged for 10 minutes at 15,000 rpm at 4° C. The supernatant was removed and protein content quantified using the NanoOrange Protein test (Molecular Probes, Eugene, Oreg.): Total protein recovered: 70.5 μg for PE-treated cells and 60 μg for basal cells.
(§4) Fluorescent dye Oregon Green 514 (OR) (Molecular Probes) was used to label the healthy/basal cells while Rhodamine Red (RR) (Molecular Probes) was used to label the PE-treated cells. The labeling procedures were carried out according to the manufacturer's protocol. The protein solutions (0.25 mL, 50.4 μg for PE cells and 0.25 mL, 42.8 μg for basal cells) were dialyzed against a solution of 10 mM phosphate buffer, 0.15 M NaCl, pH 7.5 and then 1 M NaHCO3 (0.025 mL) added to a final pH of 8.5. 10 μL of dye in dry DMF (10 mg/mL) was added and the sample stirred at room temperature for 2 hours. The protein solution was dialyzed extensively against 10 mM phosphate buffer, 0.15 M NaCl, pH 7.5, to remove excess dye.
(§5) Ligand library 1 (200 mg), prepared as described for Example 5, was transferred to a syringe fitted with a stop-valve and the ligand-beads were washed for 10 minutes (3×) with 10 mM phosphate buffer, pH 6.8, supplemented with 0.15 M NaCl, 1 mM Ca^2+, 1 mM Zn^2+, 1 mM Mn^2+, 1 mM Cu^2+, and 1 mM Mg^2+ (3 mL). The ligand-beads were treated with a 1% BSA solution for 30 minutes, then washed with buffer (1×). A mixture of labeled myocyte proteins, including both PE-induced protein (138 μL, 40 μg) and basal protein (167 μL, 40 μg) obtained as described above for Example 11, was prepared in 1.2 mL buffer, and added to the ligand library in the syringe. The proteins and ligand library were incubated at room temperature for 16 hours. The library was then washed with buffer for 5 minutes then with water for 3×5 minutes. The library was examined under a fluorescence microscope and brightly fluorescent red, green, and yellow beads (yellow indicative of both dyes red and green binding; the majority of the beads) were present, as well as unlabelled beads. The fluorescent beads were separated and retained for analysis.
(§6) The fluorescent ligand library beads containing bound protein obtained as described in Example 15 were sorted using a COPAS (250) NF Bead Sorter (Union Biometrica, Somerville, Mass.) equipped with a single flourescence emission. Beads emitting fluorescence of only one color contain proteins from one physical state, e.g. proteins expressed only in the PE-induced hypertrophic state (red) or proteins expressed only in the basal state (green). Since the instrument measures one fluorescence emission at a time, beads containing one type of color fluorescence were first sorted and then beads were resorted for emissions from the other fluorescence color. The library was first sorted such that all beads containing significant green fluorescence, basal proteins from healthy myocytes, were isolated. […]

[2] = test system: six protein mixture: Con A, P. sativum lectin, L. culinaris lectin, W. floribunda lectin, Glyceraldehyde 6-phosphate, bovine serum albumin; assay: Solid phase screening of Library 3 with labeled six protein mixture; affinity purification, gel electrophoresis and Edman degradation; type: binding; details: for Identified Protein(s): Library 3 ligand on PEGA6000 resin
[3] = test system: normal (basal) myocyte protein mixtures; assay: Solid phase screening of Library 1 with labeled myocyte proteins; bound proteins identified by on-bead digest and peptide mass fingerprinting; type: binding, neonatal Wistar rats; details: Library 1 ligand on PEGA4000 bead; Normal Myocytes; proteins primarily present in basal cells
Experimental: as §1, §2, §3, §4, §5, §6

cardiac myocytes = assay: Inhibition of DNA synthesis (cardiac hypertrophy) in cardiac myocytes treated with peptides (FIG. 3); type: cell-based
Description: The columns indicate average induction of DNA synthesis in cardiac myocytes treated with peptides. The Y-axis indicates fold induction (control basal=100%).
The importance of six ligands in cardiac hypertrophy was investigated by examining the effect of the ligand on the increase in protein synthesis (meaured by increase in DNA synthesis) in myocytes that had been treated with serum to induce a hypertrophic state (FIG. 3).

[4] = hypertrophied myocytes (treated with serum to induce a hypertrophic state)

| Substance | Identified Protein(s) [1] | Identified Protein(s) [3] | also measured |
| --- | --- | --- | --- |
| Phe-Abi-Pal-Hyp-Thr-Hyp | Zinc finger associated protein gi 20304091; Ribosomal; also recorded: proteins 40S L series (gi 206736/133023); |  |  |
| GlcNN-Trp-Phe-Asp-Trp-Pro ([GlcNN]WFDWP; reading uncertain) |  |  | selectivity of binding among the lectins [2]: binds only to Con A and not to the other lectins; Identified Protein(s) ([2]; six protein mixture): Con A |
| FTYFAK |  | Serine/threonine Protein kinase (gi 5730055); Carbonic; also recorded: anhydrase VII (gi 10304383) |  |
| Lys-Met-Hyp-Trp-Tyr-Gun (KM[Hyp]WY[Gua]) | Cell surface glycoprotein (gi 23603627); Hypothetical; also recorded: protein (XP-179829; gi 14720727) |  |  |
| Phe-Gua-Pal-Tyr-Gua-Tyr | Glucose-6-Phosphatase (gi 6679893/15488608); Succinate; also recorded: dehydrogenase; ARL-interacting protein (gi 4927202); also recorded: (M); SPTR (gi 12834839) (M), Nucleic acid binding |  | extent of DNA synthesis (cardiac myocytes; [4]): reduced the extent of DNA synthesis; extent of DNA synthesis (cardiac myocytes; normal myocytes): reduced the extent of DNA synthesis |
| His-Tyr-Pip-Thr-Acm-Abi (HY[Pip′]T[Acm′][Abi]; reading uncertain; also: printed as His-Tyr-Pip-Thr-Acm-Abi) |  | Chain C P27 cyclin A-CDK2 complex: (Cyclin A?) (gi and 2392395); Hypothetical protein XP_154035. |  |
| HTWGYW |  |  | Identified Protein(s) ([2]; six protein mixture): Con A; selectivity of binding among the lectins ([2]; six protein mixture): binds selectively to Con A |
| Pal-Gly-Abi-Hyp-Pya-Trp | NAS putative unclassified (gi 12861084); Putative Zn; also recorded: finger protein 64 (gi 12849329) |  |  |
| Phe-Gua-Asp-Abi-His-Aze |  | Hypothetical protein XP_043250 (gi 14773490) |  |
| Pya-Hyp-Hyp-Phe-Acm-Tyr |  | Troponin T (gi 547047); Ca2+/Calmodulin activated My-; also recorded: osin light chain kinase (gi 284660) (LA, MA); cGMP-; also recorded: dependent protein kinase (gi 284660) (LA) |  |
| Pya-Gua-Abi-Asp-Abi-Tyr | SPTR (gi 20869775) (M); Ribosomal proteins (60s) (gi and 20875941/6677773); (Calcium channel (gi 3202010) (M): and Slo channel protein isoform (gi 3644046) (M); Potassium and conductance calcium activated channel (gi 6754436 and NP_034740) (M);; Regulator of G-protein signalling 8 and (gi 9507049). |  | extent of DNA synthesis (cardiac myocytes; [4]): reduced the extent of DNA synthesis; extent of DNA synthesis (cardiac myocytes; normal myocytes): reduced the extent of DNA synthesis |
| Pya-Gua-Pip-Acc-Phe-Pip |  | NADH dehydrogenase; ATP binding component (gi 18598538); also recorded: (M); Myosin heavy polypeptide 9 (gi 13543854); Histone; also recorded: associated proteins (gi 20893760) (M) |  |
| GlcNN-Val-GlcNN-His-ManS-Gly |  |  | Identified Protein(s) ([2]; six protein mixture): Con A, P. sativum; also recorded: lectin |
| Abi-Thr-Hyp-Hyp-His- | Phosphofructokinase (gi 7331123); Selenium binding pro-; also recorded: tein (gi 8848341/6677907); (Serine arginine rich pro-; also recorded: tein kinase (LA); Guanylate kinase (gi 20986250) (LA),; also recorded: (M); SPTR (gi 12842823) (M, Actin interacting protein |  | extent of DNA synthesis (cardiac myocytes; [4]): reduced the extent of DNA synthesis; extent of DNA synthesis (cardiac myocytes; normal myocytes): reduced the extent of DNA synthesis |
| Pip-Pal-Pal-Phe-Pya-Pip |  | 544086) (M); Ribosomal proteins (60s) (gi 21426891); and SPTR (gi 20837095) (M) and Ca2+/Calmodulin activated Myosin light chain kinase (gi and 284660) (LA, MA); Regulator of G-Protein Signalling and (RGS14) variant (gi 2708808) ATP Synthase component and (subunit e) (gi 258788) (M);; Cytochrome P450 (gi |  |
| Phe-Ppy-Acc-Ala-Ppy-Hpy |  | Hypothetical proteins; Troponin T gi 547047;; (Phospho-; also recorded: lipase C (MA); Phosphatidyicholine sterol acyl trans-; also recorded: ferase (400167;LCAT-PIG_9)) |  |
| Phe-Thr-Pya-Pip-Asp-His (FT[3Pal][Pip′]DH) |  | (Sodium channel (gi 18591322) (M); Chloride channel (gi and 6978663/4502867) (M)) Troponin I (gi 1351298);; Zn Fin- and ger protein (gi 18591322) (MA); SPTR (peroxisomal Ca and dependent solute carrier (putative) (gi 12853685); and Beta-2 adnergic receptor (gi 12699028) |  |
| Abi-Phe-Abi-Phe-Che-Tyr | Cathepsin E (gi 4503145); Ribosomal proteins (60s L; also recorded: series) (gi 20826861) |  |  |
| ManS-Gly-ManS-Asp-Asn-Ala ([ManS]G[ManS]DNA; reading uncertain; also: printed as ManS-Gly-ManS-Asp-Asn-Ala) |  |  | Identified Protein(s) ([2]; six protein mixture): Con A, P. sativum; also recorded: lectin |
| Phe-Phe-Phe-Pip-Aze-Gua |  | Phosphatidyl choline-sterol acyl transferase (400167;; also recorded: LCAT-PIG_9) |  |
| ManN-Phe-Trp-Ser-Lys-His ([ManN]FWSKH; reading uncertain; also: printed as ManN-Phe-Trp-Ser-Lys-His) |  |  | Identified Protein(s) ([2]; six protein mixture): Con A, P. sativum; also recorded: lectin |
